Consider 1 compound from patent publication US20050089516A1, “Skin vitalizing composition for external use anti-aging preparation” (SHISEIDO COMPANY, LTD., priority 2002, published 2005).

In test [1] the test system is basement membrane structure directly under the epidermis. In words: Transmission electron microscopy of artificial skin. Format: cell-based, human. The note with it: Example 1; 10 μM compound A, with or without 10 μg/ml aprotinin. The procedure:
(§1) Collagen gel was obtained by preparing 10 ml of a human dermal fibroblasts (0.3-1×10^5 cell/ml)-suspended collagen solution (using I-AC collagen manufactured by Koken Co., Ltd.) on ice, followed by gelling the collagen in a 60 mm Petri dish at 37° C. The gel was then peeled from the bottom of the dish, the collagen gel was placed on metal, and a glass ring (12 mm inner diameter) was placed over the gel. A 0.4 ml portion of a human foreskin-derived epidermal keratinocyte (1×10^6/ml) suspension (KGM-DMEM (1:1) mixed medium containing 5% fetal bovine serum) was poured into the glass ring while avoiding leakage. The keratinocytes were allowed to adhere in a CO2 incubator overnight, and the ring was removed on the following day. The medium was filled in up to the border of the epidermal layer, and culturing was continued while exposing the epidermal layer to the air, to prepare a multilayered skin model with epidermis having a horny layer. […]

The subject of test [2] is type VII collagen. In words: Artificial skin culture, immunostaining with anti-type VII collagen antibody. The settings on record: Example 1; culturing for 2 weeks; 10 μM compound A, 10 μg/ml aprotinin, 1 ng/ml interleukin-1β, 1 ng/ml TGF-α, 100 ng/ml PDGF; versus no-compound control. In kind it is cell-based, human. The procedure: as §1

In the case of `COc1ccc(S(=O)(=O)N(Cc2cccnc2)C(C(=O)NO)C(C)C)cc1.Cl` (centres unmarked) [compound A], the “basement membrane structure by transmission electron microscope” value in test [1] is recorded as “induced formation of the basement membrane”. The “staining of type VII collagen directly under the basal keratinocytes” value in test [2] is reported as “weak but definite staining”.
